# Laboratory results taken from patent US20080306076A1, “MODULATION OF CHEMOSENSORY RECEPTORS AND LIGANDS ASSOCIATED THEREWITH” (SENOMYX, INC., priority 2007, published 2008).
# Residue numbers refer to the chain shown, from its start.
# Legend:
# hT1R1 S306A = biological target: T1, hT1R1 S306A (Homo sapiens, UniProt Q7RTX1, S306A); assay: Mutagenesis study, hT1R1 mutant S306A; type: cell-based; conditions: S306 mutation
# T1 construct: expressed in transfected cells; host or cells: HEK293, transient transfection
# T1 sequence (Q7RTX1 21-841 S306A): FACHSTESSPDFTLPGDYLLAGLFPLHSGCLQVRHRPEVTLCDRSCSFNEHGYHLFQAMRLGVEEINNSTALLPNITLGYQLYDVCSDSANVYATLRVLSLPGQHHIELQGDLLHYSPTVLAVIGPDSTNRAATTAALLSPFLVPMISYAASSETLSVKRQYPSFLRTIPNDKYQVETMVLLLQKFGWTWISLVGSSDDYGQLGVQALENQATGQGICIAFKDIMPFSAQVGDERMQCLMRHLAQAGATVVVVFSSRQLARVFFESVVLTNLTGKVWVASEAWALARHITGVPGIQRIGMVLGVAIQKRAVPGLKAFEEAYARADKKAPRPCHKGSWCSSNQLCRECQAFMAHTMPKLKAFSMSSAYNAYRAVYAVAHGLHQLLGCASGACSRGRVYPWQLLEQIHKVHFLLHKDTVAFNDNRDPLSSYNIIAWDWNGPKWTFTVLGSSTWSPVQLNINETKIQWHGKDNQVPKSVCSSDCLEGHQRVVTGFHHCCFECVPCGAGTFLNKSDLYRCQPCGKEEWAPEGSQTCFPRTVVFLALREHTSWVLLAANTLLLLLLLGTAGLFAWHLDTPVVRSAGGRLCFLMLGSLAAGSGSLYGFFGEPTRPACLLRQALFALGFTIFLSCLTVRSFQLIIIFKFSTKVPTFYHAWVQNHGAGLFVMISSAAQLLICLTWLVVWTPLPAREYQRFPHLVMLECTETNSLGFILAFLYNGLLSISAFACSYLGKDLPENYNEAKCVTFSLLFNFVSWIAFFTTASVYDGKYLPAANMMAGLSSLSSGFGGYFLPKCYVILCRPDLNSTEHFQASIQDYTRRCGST
# T1 sequence (Q923K1 21-858 partner): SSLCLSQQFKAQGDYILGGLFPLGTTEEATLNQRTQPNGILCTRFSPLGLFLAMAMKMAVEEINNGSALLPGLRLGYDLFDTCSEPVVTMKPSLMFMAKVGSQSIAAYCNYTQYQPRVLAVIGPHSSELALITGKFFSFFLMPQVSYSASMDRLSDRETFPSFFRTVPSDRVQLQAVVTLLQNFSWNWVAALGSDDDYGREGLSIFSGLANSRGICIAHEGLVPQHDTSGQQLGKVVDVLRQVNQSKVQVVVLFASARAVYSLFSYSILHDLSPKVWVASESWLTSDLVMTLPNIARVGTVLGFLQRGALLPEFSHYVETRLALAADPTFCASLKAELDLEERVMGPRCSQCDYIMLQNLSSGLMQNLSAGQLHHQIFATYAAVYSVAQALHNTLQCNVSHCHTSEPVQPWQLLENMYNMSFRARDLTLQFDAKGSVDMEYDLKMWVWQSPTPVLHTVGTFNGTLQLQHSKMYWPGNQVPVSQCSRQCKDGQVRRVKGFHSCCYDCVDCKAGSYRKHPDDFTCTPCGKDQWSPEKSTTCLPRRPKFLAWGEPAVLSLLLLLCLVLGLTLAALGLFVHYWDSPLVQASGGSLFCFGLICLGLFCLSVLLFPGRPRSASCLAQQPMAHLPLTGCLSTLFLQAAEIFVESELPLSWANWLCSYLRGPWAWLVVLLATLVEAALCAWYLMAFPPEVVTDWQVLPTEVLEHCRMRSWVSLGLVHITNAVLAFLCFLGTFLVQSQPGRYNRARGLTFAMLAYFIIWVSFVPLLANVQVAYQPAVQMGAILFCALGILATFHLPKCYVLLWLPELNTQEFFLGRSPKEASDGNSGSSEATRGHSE
# Excerpt: (§1) In order to further define the interaction sites of umami stimuli, we performed site-directed mutagenesis on human T1R1 VFT. The mutagenesis was done using the routine PCR-based method. […] were transiently transfected into HEK293 cell together with the rat T1R3 wild type cDNA, and the transfected cells were characterized using an automated FLIPR machine or a calcium imaging system as described in our previous patent applications.
# hT1R1 Y220A = biological target: T2, hT1R1 Y220A (Homo sapiens, UniProt Q7RTX1, Y220A); assay: Mutagenesis study, hT1R1 mutant Y220A; type: cell-based; conditions: Y220 mutant, FIG. 11
# T2 construct: expressed in transfected cells; host or cells: HEK293, transient transfection
# T2 sequence (Q7RTX1 21-841 Y220A): T1 sequence (Q7RTX1 21-841 S306A) with Y200A, A286S
# T2 sequence (Q923K1 21-858 partner): T1 sequence (Q923K1 21-858 partner)
# Excerpt: as §1
Compound,enhancement activity of GMP (hT1R1 S306A),activity against L-Glu (hT1R1 Y220A)
"Nc1nc2c(ncn2[C@@H]2O[C@H](COP(=O)(O)O)[C@@H](O)[C@H]2O)c(=O)[nH]1 [GMP, guanosine-5′-monophosphate]",similarly affected,–
"N[C@@H](CCC(=O)O)C(=O)O [L-Glu, L-glutamate]",–,significant reduced activity
